From the NIST ThermoML archive (doi:10.1021/acs.jced.7b01101)
± gives the expanded uncertainty stated by the source.

Legend:
[1] = 100 kPa, Liquid; for viscosity: Concentric cylinders viscometry
[2] = refractive index (Na D-line) (dimensionless); settings: 293.15 K; 100 kPa; Liquid; Standard Abbe refractometry
[3] = refractive index (Na D-line) (dimensionless); wn = mass fraction of the nth substance listed; settings: 293.15 K, 100 kPa, Liquid, Standard Abbe refractometry
[4] = wn = mass fraction of the nth substance listed; settings: 100 kPa, Liquid; for electrical conductivity: 293.15 K, Alternating current cell with electrodes; for viscosity / mass density: 298.15 K; for viscosity: Concentric cylinders viscometry; for mass density: Vibrating tube method
[5] = refractive index (Na D-line) (dimensionless); an = ratio of the nth substance listed; settings: 293.15 K, 100 kPa, Liquid, Standard Abbe refractometry
[6] = an = ratio of the nth substance listed; settings: 100 kPa, Liquid; for electrical conductivity: 293.15 K, Alternating current cell with electrodes; for viscosity / mass density: 298.15 K; for viscosity: Concentric cylinders viscometry; for mass density: Vibrating tube method

NCCO [2-aminoethan-1-ol]
[1]
Settings | electrical conductivity [S/m] | mass density [kg/m3]
293.15 K, Alternating current cell with electrodes | 0.0031 ± 0.0003 | –
298.15 K, Vibrating tube method | – | 1012 ± 1

Settings | viscosity [mPa·s]
[1], 298.15 K | 18.75 ± 2.8

Settings | refractive index
[2] | 1.456 ± 0.002

NCCO [2-aminoethan-1-ol] + O
Settings | electrical conductivity, [4] [S/m] | electrical conductivity, [6] [S/m] | mass density, [4] [kg/m3] | mass density, [6] [kg/m3] | refractive index, [3] | refractive index, [5] | viscosity, [4] [mPa·s] | viscosity, [6] [mPa·s]
a2 = 1.5 | – | 0.046 ± 0.005 | – | 1018.3 ± 1 | – | 1.3854 ± 0.002 | – | 3.5 ± 0.53
a2 = 2.333 | – | 0.072 ± 0.007 | – | 1012.9 ± 1 | – | 1.372 ± 0.002 | – | 2.6 ± 0.39
a2 = 4 | – | 0.102 ± 0.01 | – | 1007.1 ± 1 | – | 1.3587 ± 0.002 | – | 1.7 ± 0.26
w1 = 0.2 | 0.102 ± 0.012 | – | 1007.1 ± 1.5 | – | 1.3587 ± 0.0033 | – | 1.7 ± 0.28 | –
w1 = 0.3 | 0.072 ± 0.0091 | – | 1012.9 ± 1.5 | – | 1.3718 ± 0.0033 | – | 2.6 ± 0.43 | –
w1 = 0.4 | 0.0461 ± 0.0063 | – | 1018.3 ± 1.4 | – | 1.3852 ± 0.0033 | – | 3.5 ± 0.6 | –
w1 = 0.5 | 0.029 ± 0.0045 | – | 1022.1 ± 1.2 | – | 1.3975 ± 0.0034 | – | 5.4 ± 1 | –
w1 = 0.6 | 0.0111 ± 0.0023 | – | 1025.1 ± 1.1 | – | 1.4126 ± 0.0033 | – | 9.67 ± 1.6 | –
w1 = 0.7 | 0.0089 ± 0.0012 | – | 1026.5 ± 1 | – | 1.423 ± 0.0032 | – | 12.26 ± 2.1 | –
w1 = 0.8 | 0.0034 ± 0.0007 | – | 1024.7 ± 1.2 | – | 1.4368 ± 0.0029 | – | 20.39 ± 3.1 | –
w1 = 0.9 | 0.0032 ± 0.0003 | – | 1020.4 ± 1.6 | – | 1.4444 ± 0.0028 | – | 19.45 ± 2.9 | –
w1 = 1 | 0.0031 ± 0.0003 | – | 1012 ± 1 | – | 1.456 ± 0.002 | – | 18.75 ± 2.8 | –

O [water]
Settings | viscosity [mPa·s]
[1], 298.15 K | 0.89 ± 0.13

Settings | refractive index
[2] | 1.333 ± 0.002

O [water] + NCCO
w2 = 0
Settings | refractive index | viscosity [mPa·s]
[3] | 1.333 ± 0.002 | –
[4] | – | 0.89 ± 0.13
